Measurements taken from patent US11696913B2, “Prolonged ectoparasite-controlling agent for animal” (MITSUI CHEMICALS AGRO, INC., priority 2017, dated 2023).

Assays:
[1] = test system: Rhipicephalus (Boophilus) microplus; experiment: In vitro injection test with Rhipicephalus (Boophilus) microplus (BOOPMI Inj); conditions: 168 h, laid fertile eggs after 7 days, read-out: acaricidal activity; for pest or weed control at 6.4 ng: dose 0.0064 μg/animal injected; for pest or weed control at 32 ng: dose 0.032 μg/animal injected; for pest or weed control at 0.00016 mg: dose 0.16 μg/animal injected; for pest or weed control at 0.0008 mg: dose 0.8 μg/animal injected
Summary of the method: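 Test substance in DMSO; 1 μl injected into abdomen of each of 5 engorged adult female ticks, then held at 28° C., 85% rel. hum. Activity scored after 7 days from laying of fertile eggs: 100% = no eggs or all infertile, 0% = all eggs fertile.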

Rhipicephalus sanguineus = experiment: In vitro contact test with adult hard ticks (Rhipicephalus sanguineus); conditions: read-out: acaricidal activity; for pest or weed control at 0.04 µg/cm2, 0.04 µg/cm2: dose 0.04 μg/cm^2, 48 h; for pest or weed control at 0.2 µg/cm2, 0.2 µg/cm2: dose 0.2 μg/cm^2, 48 h; for pest or weed control at 1 µg/cm2, 1 µg/cm2: dose 1 μg/cm^2, 48 h
Summary of the method: (§1)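 Adult R. sanguineus, I. ricinus, D. variabilis or A. americanum nymphs exposed in glass vials coated with compound from acetone (900 ppm gives 5 μg/cm^2). Held 48 h at room temperature (R. sanguineus) or 21° C., 85% rel. hum.; then heated at 45-50° C. ≤5 min, motionless or uncoordinated ticks scored dead/moribund.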

Ixodes ricinus = experiment: In vitro contact test with adult hard ticks (Ixodes ricinus); conditions: read-out: acaricidal activity; for pest or weed control at 0.2 µg/cm2, 0.2 µg/cm2: dose 0.2 μg/cm^2, 48 h; for pest or weed control at 1 µg/cm2, 1 µg/cm2: dose 1 μg/cm^2, 48 h; for pest or weed control at 5 µg/cm2, 5 µg/cm2: dose 5 μg/cm^2, 48 h
Summary of the method: as §1

Plutella xylostella = experiment: Insecticidal testing against diamondback moth; type: in vivo; conditions: foliar, 144 h, concentration 100 ppm, cabbage leaf dip, third-stage larvae, after 6 days, read-out: pesticidal rate
Excerpt: Insecticidal Testing Against Diamondback Moth (Plutella xylostella)

Ctenocephalides felis [2] = experiment: In vitro contact test with fleas; conditions: read-out: insecticidal activity; for pest or weed control at 0.04 µg/cm2, 0.04 µg/cm2: dose 0.04 μg/cm^2, dead or moribund fleas after 48 h; for pest or weed control at 0.2 µg/cm2, 0.2 µg/cm2: dose 0.2 μg/cm^2, dead or moribund fleas after 48 h; for pest or weed control at 1 µg/cm2, 1 µg/cm2: dose 1 μg/cm^2, dead or moribund fleas after 48 h
Summary of the method: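 Adult male and female cat fleas (5-10 per tube) placed in glass tubes coated with compound from acetone solution (900 ppm gives 5 μg/cm^2), kept at room temperature and ambient humidity. After 48 h, motionless or uncoordinated fleas scored dead or moribund; activity expressed as % dead or moribund.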

Ctenocephalides felis [3] = experiment: Ctenocephalides felis in-vitro feeding test with fleas (CTECFE oral); conditions: 48 hours, read-out: insecticidal feeding activity; for pest or weed control at 0.032 ppm: dose 0.032 ppm in citrated cattle blood; for pest or weed control at 0.16 ppm: dose 0.16 ppm in citrated cattle blood; for pest or weed control at 0.8 ppm: dose 0.8 ppm in citrated cattle blood; for pest or weed control at 4 ppm: dose 4 ppm in citrated cattle blood
Summary of the method: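 About 20 unfed adult cat fleas fed through parafilm on citrated cattle blood containing test substance (DMSO solution diluted in blood), held at about 37° C. Kill rate scored after 48 hours, 100% meaning all fleas dead.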

Spodoptera litura = experiment: Insecticidal testing against common cutworm; type: in vivo; conditions: foliar, 144 h, concentration 100 ppm, cabbage leaf dip, second-stage larvae, after 6 days, read-out: pesticidal rate
Excerpt: Insecticidal Testing Against Common Cutworm (Spodoptera litura)

Laodelphax striatellus = experiment: Insecticidal testing against small brown planthopper; type: in vivo; conditions: 144 h, concentration 100 ppm, sprayed rice seedlings, after 6 days, read-out: pesticidal rate
Summary of the method: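 Acetone solution of compound at a set concentration sprayed onto rice seedlings, air-dried, then exposed to 10 planthoppers (one group). Held at 25° C; survival rate recorded after 6 days.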

Amblyomma americanum = experiment: In vitro contact test with hard ticks (Amblyomma americanum nymphs); conditions: read-out: acaricidal activity; for pest or weed control at 1 µg/cm2, 1 µg/cm2: dose 1 μg/cm^2, 48 h; for pest or weed control at 0.2 µg/cm2, 0.2 µg/cm2: dose 0.2 μg/cm^2, 48 h
Summary of the method: as §1

Dermacentor variabilis = experiment: In vitro contact test with adult hard ticks (Dermacentor variabilis); conditions: read-out: acaricidal activity; for pest or weed control at 0.2 µg/cm2, 0.2 µg/cm2: dose 0.2 μg/cm^2, 48 h; for pest or weed control at 1 µg/cm2, 1 µg/cm2: dose 1 μg/cm^2, 48 h
Summary of the method: as §1

Row | SMILES | pest or weed control at 32 ng [1] | pest or weed control at 0.00016 mg [1] | pest or weed control at 0.0008 mg [1] | pest or weed control at 0.04 µg/cm2, 0.04 µg/cm2 (Rhipicephalus sanguineus) | pest or weed control at 0.2 µg/cm2, 0.2 µg/cm2 (Ixodes ricinus) | pest or weed control at 1 µg/cm2, 1 µg/cm2 (Ixodes ricinus) | pest or weed control at 5 µg/cm2, 5 µg/cm2 (Ixodes ricinus) | pest or weed control at 100 ppm (Plutella xylostella) | pest or weed control at 0.2 µg/cm2, 0.2 µg/cm2 (Ctenocephalides felis [2]) | pest or weed control at 1 µg/cm2, 1 µg/cm2 (Ctenocephalides felis [2]) | pest or weed control at 0.16 ppm (Ctenocephalides felis [3]) | pest or weed control at 0.8 ppm (Ctenocephalides felis [3]) | pest or weed control at 4 ppm (Ctenocephalides felis [3]) | pest or weed control at 100 ppm (Spodoptera litura) | pest or weed control at 100 ppm (Laodelphax striatellus) | pest or weed control at 1 µg/cm2, 1 µg/cm2 (Amblyomma americanum) | pest or weed control at 0.2 µg/cm2, 0.2 µg/cm2 (Dermacentor variabilis) | pest or weed control at 1 µg/cm2, 1 µg/cm2 (Dermacentor variabilis) | pest or weed control at 0.2 µg/cm2, 0.2 µg/cm2 (Rhipicephalus sanguineus) | pest or weed control at 1 µg/cm2, 1 µg/cm2 (Rhipicephalus sanguineus) | further results
1 | CN(C(=O)c1ccc(F)c(F)c1)c1cccc(C(=O)Nc2c(I)cc(C(F)(C(F)(F)F)C(F)(F)F)cc2OC(F)F)c1F [Compound 109] | 100% | 100% | 100% | 90% | 90% | 90% | 90% | ≥ 70% | 95% | 95% | 95% | 95% | 95% | ≥ 70% | ≥ 70% | 90% | 90% | 90% | – | – | pest or weed control at 6.4 ng [1]: 100%; pest or weed control at 0.04 µg/cm2, 0.04 µg/cm2 (Ctenocephalides felis [2]): 95%; pest or weed control at 0.032 ppm (Ctenocephalides felis [3]): 95%
2 | O=C(Nc1cccc(C(=O)Nc2c(I)cc(C(F)(C(F)(F)F)C(F)(F)F)cc2OC(F)F)c1F)c1ccc(F)cc1 [Compound 92] | 100% | 100% | 100% | 90% | 90% | 90% | 90% | ≥ 70% | 95% | 95% | 95% | 95% | 95% | ≥ 70% | ≥ 70% | 90% | 90% | – | 90% | 90% | pest or weed control at 6.4 ng [1]: 100%; pest or weed control at 0.04 µg/cm2, 0.04 µg/cm2 (Ctenocephalides felis [2]): 95%; pest or weed control at 0.032 ppm (Ctenocephalides felis [3]): 95%; pest or weed control at 0.2 µg/cm2, 0.2 µg/cm2 (Amblyomma americanum): 90%; pest or weed control at 0.04 µg/cm2, 0.04 µg/cm2 (Dermacentor variabilis; dose 0.04 μg/cm^2, 48 h): 90%
3 | O=C(Nc1cccc(C(=O)Nc2c(Br)cc(C(F)(C(F)(F)F)C(F)(F)C(F)(F)F)cc2OC(F)(F)F)c1F)c1ccc(F)cc1 (stereo not drawn) [Compound 95] | 100% | 100% | 100% | 90% | 90% | 90% | 90% | ≥ 70% | 95% | 95% | 95% | 95% | 95% | ≥ 70% | ≥ 70% | 90% | – | 90% | 90% | 90% | pest or weed control at 0.04 µg/cm2, 0.04 µg/cm2 (Amblyomma americanum; dose 0.04 μg/cm^2, 48 h): 90%; pest or weed control at 0.2 µg/cm2, 0.2 µg/cm2 (Amblyomma americanum): 90%
4 | O=C(Nc1cccc(C(=O)Nc2c(I)cc(C(F)(C(F)(F)F)C(F)(F)F)cc2S(=O)(=O)C(F)(F)F)c1F)c1ccc(F)cc1 [Compound 64] | 100% | 100% | 100% | – | – | 90% | 90% | ≥ 70% | 95% | 95% | 95% | 95% | 95% | ≥ 70% | ≥ 70% | 90% | 90% | 90% | 90% | 90% | pest or weed control at 0.2 µg/cm2, 0.2 µg/cm2 (Amblyomma americanum): 90%
5 | O=C(Nc1cccc(C(=O)Nc2c(Br)cc(C(F)(C(F)(F)F)C(F)(F)F)cc2OC(F)(F)F)c1F)c1ccc(F)cc1 [Compound 71] | 100% | 100% | 100% | 90% | 90% | 90% | 90% | ≥ 70% | 95% | 95% | – | 95% | 95% | ≥ 70% | ≥ 70% | 90% | 90% | 90% | 90% | 90% | pest or weed control at 0.2 µg/cm2, 0.2 µg/cm2 (Amblyomma americanum): 90%
6 | O=C(Nc1cccc(C(=O)Nc2c(I)cc(C(F)(C(F)(F)F)C(F)(F)F)cc2OC(F)F)c1F)c1ccc(C(F)(F)F)nc1 [Compound 108] | 100% | 100% | 100% | 90% | 90% | 90% | 90% | ≥ 70% | 95% | 95% | 95% | 95% | 95% | ≥ 70% | ≥ 70% | 90% | 90% | 90% | 90% | 90% | pest or weed control at 0.0064 ppm (Ctenocephalides felis [3]; dose 0.0064 ppm in citrated cattle blood): 95%; pest or weed control at 0.032 ppm (Ctenocephalides felis [3]): 95%; pest or weed control at 0.2 µg/cm2, 0.2 µg/cm2 (Amblyomma americanum): 90%
7 | O=C(Nc1cc(C(=O)Nc2c(I)cc(C(F)(C(F)(F)F)C(F)(F)F)cc2C(F)(F)F)ccc1F)c1ccc(F)cc1 [Compound 84] | 100% | 100% | 100% | 90% | 90% | 90% | 90% | ≥ 70% | – | – | 95% | 95% | 95% | ≥ 70% | ≥ 70% | 90% | 90% | 90% | 90% | 90% | pest or weed control at 0.2 µg/cm2, 0.2 µg/cm2 (Amblyomma americanum): 90%
